Results taken from patent US10479795B2 (Incyte Corporation, priority 2016, dated 2019).
Counter-ions that a name gives are not always drawn. Like-named read-outs stand apart in the source and are kept apart here.

Columns and labels:
[1] = test system: Phosphorylated Ribosomal Protein S6 (RPS6); experiment: THP-1 RPS6 ELISA Assay; assay type: cell-based, Human; details: THP-1 cells, read-out: PI3Kγ_THP1_RPS6_ELISA IC50
Method: To measure the Phosphorylated Ribosomal Protein S6 (RPS6) in cell lysates, THP-1 cells (Human Acute Monocytic Leukemia) are purchased from ATCC (Manassas, Va.) and maintained in RPMI with 10% FBS (Gibco/Life Technologies, Carlsbad, Calif.). For the assay, THP-1 cells are serum starved overnight in RPMI, then plated in RPMI (2×10^5 cells/well in 90 μL) into 96-well flat-bottom tissue culture treated plates (Corning, Corning, N.Y.), in the presence or absence of a concentration range of test compounds. Covered plates are incubated for 2 hours at 37° C., 5% CO2 then treated with or without 10 nM MCP-1 (MYBioSource, San Diego, Calif.) for 15 minutes at 37° C., 5% CO2. Plates are centrifuged at 1600 RPM and supernatants are removed. Cells are lysed in Lysis Buffer (Cell Signaling, Danvers, Mass.) with Protease Inhibitor (Calbiochem/EMD, Germany), PMSF (Sigma, St Louis Mo.), HALTS (Thermo Fisher, Rockford, Ill.) for 30 min on wet ice. Cell lysates are frozen at −80° C. before testing. The lysates are tested in the Human/Mouse/Rat Phospho-RPS6 ELISA (R&D Systems, Inc. Minn, Minn.). The plate is measured using a microplate reader (SpectraMax M5 —Molecular Devices, LLC Sunnyvale, Calif.) set to 450 nm with a wavelength correction of 540. IC50 determination is performed by fitting the curve of inhibitor percent inhibition versus the log of the inhibitor concentration using the GraphPad Prism 5.0 software.

[2] = biological target: PI3Kγ (p110γ) Recombinant Human Protein (Homo sapiens (Human), UniProt P48736); experiment: PI3K-γ Scintillation Proximity Assay; assay type: biochemical; details: read-out: PI3Kγ IC50
How it was run: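 Recombinant human p110γ assayed at room temperature in 20 mM MOPS pH 6.7, 10 mM MgCl2, 5 mM DTT, 0.03% CHAPS, 2% DMSO, with 20 μM PIP2 and 2 μM ATP plus [γ-33P]ATP. Product captured on WGA SPA beads overnight and counted; IC50 fitted from % of solvent-control activity versus log inhibitor concentration.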

[3] = biological target: PI3Kδ (p110δ/p85α) Recombinant Human Protein (Homo sapiens (Human), UniProt O00329); experiment: PI3Kδ Scintillation Proximity Assay; assay type: biochemical
How it was run: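 Kinase reaction run at room temperature in 20 mM MOPS pH 6.7, 10 mM MgCl2, 5 mM DTT, 0.03% CHAPS with 20 μM PIP2, 2 μM ATP plus [γ-33P]ATP, 3.4 nM enzyme, 2% DMSO; 120 min. Quenched with WGA SPA beads/EDTA, counted by scintillation; IC50 from % solvent-control activity vs log concentration.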

Chain of PI3Kδ (p110δ/p85α) Recombinant Human Protein (O00329 whole entry): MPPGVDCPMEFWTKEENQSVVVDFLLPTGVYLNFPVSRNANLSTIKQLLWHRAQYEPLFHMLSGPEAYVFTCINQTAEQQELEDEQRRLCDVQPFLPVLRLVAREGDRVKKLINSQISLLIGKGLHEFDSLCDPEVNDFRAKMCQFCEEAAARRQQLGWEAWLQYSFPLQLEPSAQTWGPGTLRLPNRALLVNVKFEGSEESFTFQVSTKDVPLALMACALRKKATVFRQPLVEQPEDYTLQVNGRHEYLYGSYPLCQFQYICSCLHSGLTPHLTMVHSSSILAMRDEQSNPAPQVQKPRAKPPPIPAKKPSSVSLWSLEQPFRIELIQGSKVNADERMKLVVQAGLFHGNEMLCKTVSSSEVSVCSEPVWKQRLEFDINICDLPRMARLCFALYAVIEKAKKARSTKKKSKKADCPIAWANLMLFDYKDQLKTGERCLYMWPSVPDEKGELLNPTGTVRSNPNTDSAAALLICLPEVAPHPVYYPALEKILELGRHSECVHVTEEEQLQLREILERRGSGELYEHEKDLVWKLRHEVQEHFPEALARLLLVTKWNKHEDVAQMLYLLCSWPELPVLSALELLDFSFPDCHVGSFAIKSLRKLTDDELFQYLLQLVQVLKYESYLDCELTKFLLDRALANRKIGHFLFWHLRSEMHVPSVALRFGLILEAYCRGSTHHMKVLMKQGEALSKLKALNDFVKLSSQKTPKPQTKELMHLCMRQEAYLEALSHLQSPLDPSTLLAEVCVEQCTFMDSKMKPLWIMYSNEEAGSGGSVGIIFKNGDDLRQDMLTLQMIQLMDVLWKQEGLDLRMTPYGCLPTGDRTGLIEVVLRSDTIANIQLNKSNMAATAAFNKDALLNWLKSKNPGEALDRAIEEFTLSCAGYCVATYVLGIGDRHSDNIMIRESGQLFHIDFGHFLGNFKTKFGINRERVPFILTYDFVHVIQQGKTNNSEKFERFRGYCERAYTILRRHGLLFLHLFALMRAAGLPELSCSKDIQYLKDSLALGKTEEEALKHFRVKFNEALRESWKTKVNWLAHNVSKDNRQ
Chain of PI3Kδ (p110δ/p85α) Recombinant Human Protein (P27986 whole entry partner): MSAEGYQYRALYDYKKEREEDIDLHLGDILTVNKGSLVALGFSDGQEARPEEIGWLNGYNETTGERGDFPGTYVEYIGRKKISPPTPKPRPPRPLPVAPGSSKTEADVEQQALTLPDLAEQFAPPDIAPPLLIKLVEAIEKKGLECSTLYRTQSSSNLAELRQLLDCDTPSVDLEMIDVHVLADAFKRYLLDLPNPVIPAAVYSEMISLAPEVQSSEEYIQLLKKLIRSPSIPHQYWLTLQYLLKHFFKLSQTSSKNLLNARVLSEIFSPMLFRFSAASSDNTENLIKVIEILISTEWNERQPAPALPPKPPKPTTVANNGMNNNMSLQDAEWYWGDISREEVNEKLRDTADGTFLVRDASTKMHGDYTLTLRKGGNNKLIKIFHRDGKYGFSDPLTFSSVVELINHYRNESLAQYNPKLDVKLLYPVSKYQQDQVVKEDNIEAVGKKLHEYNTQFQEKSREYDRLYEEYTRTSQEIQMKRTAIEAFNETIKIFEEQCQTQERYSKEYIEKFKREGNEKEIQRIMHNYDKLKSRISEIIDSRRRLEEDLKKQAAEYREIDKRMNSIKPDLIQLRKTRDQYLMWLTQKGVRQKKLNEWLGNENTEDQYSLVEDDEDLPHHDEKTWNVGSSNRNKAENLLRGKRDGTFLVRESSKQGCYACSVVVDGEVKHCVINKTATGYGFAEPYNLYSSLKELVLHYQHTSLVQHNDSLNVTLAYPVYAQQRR
Chain of PI3Kγ (p110γ) Recombinant Human Protein (P48736 whole entry): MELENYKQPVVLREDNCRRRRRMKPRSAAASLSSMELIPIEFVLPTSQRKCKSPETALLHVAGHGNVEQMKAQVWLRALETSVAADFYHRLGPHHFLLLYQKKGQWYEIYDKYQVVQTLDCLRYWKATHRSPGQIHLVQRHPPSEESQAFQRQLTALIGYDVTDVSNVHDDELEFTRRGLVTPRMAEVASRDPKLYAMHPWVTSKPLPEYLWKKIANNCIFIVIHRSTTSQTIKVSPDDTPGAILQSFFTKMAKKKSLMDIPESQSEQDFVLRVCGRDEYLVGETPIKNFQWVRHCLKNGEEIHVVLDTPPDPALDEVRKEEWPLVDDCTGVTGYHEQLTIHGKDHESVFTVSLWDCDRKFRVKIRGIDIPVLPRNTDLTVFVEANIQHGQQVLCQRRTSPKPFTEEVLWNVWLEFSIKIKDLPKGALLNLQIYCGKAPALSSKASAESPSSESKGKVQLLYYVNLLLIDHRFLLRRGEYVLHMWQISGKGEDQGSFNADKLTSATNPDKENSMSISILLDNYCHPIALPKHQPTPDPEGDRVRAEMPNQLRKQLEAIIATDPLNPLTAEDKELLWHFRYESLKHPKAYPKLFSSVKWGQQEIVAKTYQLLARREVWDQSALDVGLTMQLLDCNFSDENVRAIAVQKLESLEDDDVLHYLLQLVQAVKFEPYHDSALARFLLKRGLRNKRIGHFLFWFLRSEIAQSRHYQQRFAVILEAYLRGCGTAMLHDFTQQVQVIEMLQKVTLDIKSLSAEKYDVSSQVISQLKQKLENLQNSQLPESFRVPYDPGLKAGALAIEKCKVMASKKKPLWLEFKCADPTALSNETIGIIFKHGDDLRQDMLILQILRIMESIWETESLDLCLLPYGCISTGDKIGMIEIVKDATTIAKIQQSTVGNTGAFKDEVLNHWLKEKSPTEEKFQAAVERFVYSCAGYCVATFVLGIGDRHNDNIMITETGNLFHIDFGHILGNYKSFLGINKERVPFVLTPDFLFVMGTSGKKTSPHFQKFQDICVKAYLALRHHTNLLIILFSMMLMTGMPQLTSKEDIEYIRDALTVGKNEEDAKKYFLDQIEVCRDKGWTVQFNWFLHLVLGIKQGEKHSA

Row | IC50 [2] | IC50 [3] | IC50 ([1]; Homo sapiens) | Compound | IC50 [1]
1 | < 100 nM | 100 to 500 nM | 100 to 500 nM | Cc1ccc(S(=O)(=O)NC23CCC(C(C)O)(CC2)OC3)cc1-c1cnc2c(N)ncnn12 (racemic) [Example 432, 3-(4-Aminoimidazo[1,2-f][1,2,4]triazin-7-yl)-N-(1-(1-hydroxyethyl)-2-oxabicyclo[2.2.2]octan-4-yl)-4-methylbenzenesulfonamide trifluoroacetate salt (racemic)] | –
2 | < 100 nM | 100 to 500 nM | 100 to 500 nM | Cc1ccc(S(=O)(=O)NC23CCC(C(O)C(F)(F)F)(CC2)OC3)cc1-c1cnc2c(N)ncnn12 (racemic) [Example 437, 3-(4-Aminoimidazo[1,2-f][1,2,4]triazin-7-yl)-4-methyl-N-(1-(2,2,2-trifluoro-1-hydroxyethyl)-2-oxabicyclo[2.2.2]octan-4-yl)benzenesulfonamide trifluoroacetate salt (racemic)] | –
3 | < 100 nM | 100 to 500 nM | < 100 nM | Cc1ccc(S(=O)(=O)NC23CCC(C(O)c4ccccc4)(CC2)OC3)cc1-c1cnc2c(N)ncnn12 (racemic) [Example 438, 3-(4-Aminoimidazo[1,2-f][1,2,4]triazin-7-yl)-N-(1-(hydroxy(phenyl)methyl)-2-oxabicyclo[2.2.2]octan-4-yl)-4-methylbenzenesulfonamide trifluoroacetate salt (racemic)] | –
4 | < 100 nM | 500 to 2000 nM | 500 to 1000 nM | Cc1ccc(S(=O)(=O)N2C[C@@H]3CCO[C@@H]3C2)cc1-c1cnc2c(N)ncnn12 (relative stereo) [Example 211, 7-(5-((cis-Hexahydro-5H-furo[2,3-c]pyrrol-5-yl)sulfonyl)-2-methylphenyl)imidazo[2,1-f][1,2,4]triazin-4-amine] | –
5 | < 100 nM | 100 to 500 nM | – | Cc1ccc(S(=O)(=O)N[C@H]2CC[C@@H](C#N)C2)cc1-c1cnc2c(N)nc(C(F)(F)F)nn12 (single isomer, unassigned) [Example 320] | 100 to 500 nM
6 | < 100 nM | < 100 nM | – | Cc1ccc(S(=O)(=O)N[C@H]2CC[C@@H](C#N)C2)cc1-c1cnc2c(N)nc(C(F)(F)F)nn12 (single isomer, unassigned) [Example 321] | < 100 nM
7 | 100 to 500 nM | 500 to 2000 nM | > 1000 nM | Cc1ccc(S(=O)(=O)N[C@H]2CC[C@H](O)CC2)cc1-c1cnc2c(N)cccn12 [Example 1, 3-(8-Aminoimidazo[1,2-a]pyridin-3-yl)-N-(trans-4-hydroxycyclohexyl)-4-methylbenzenesulfonamide trifluoroacetate] | –
8 | 100 to 500 nM | 500 to 2000 nM | > 1000 nM | CCS(=O)(=O)Nc1cc(-c2cnc3c(N)cccn23)cnc1F [Example 2, N-[5-(8-Aminoimidazo[1,2-a]pyridin-3-yl)-2-fluoropyridin-3-yl]ethanesulfonamide bis(trifluoroacetate)] | –
9 | < 100 nM | 100 to 500 nM | < 100 nM | Cc1ccc(S(=O)(=O)N[C@H]2CC[C@H](O)CC2)cc1-c1cnc2c(N)cc(Cl)cn12 [Example 4, 3-(8-Amino-6-chloroimidazo[1,2-a]pyridin-3-yl)-N-(trans-4-hydroxycyclohexyl)-4-methylbenzenesulfonamide trifluoroacetate] | –
10 | < 100 nM | 100 to 500 nM | 100 to 500 nM | CC(=O)Nc1cc(Cl)cn2c(-c3cc(S(=O)(=O)N[C@H]4CC[C@H](O)CC4)ccc3C)cnc12 [Example 5, N-[6-chloro-3-(5-{[(trans-4-hydroxycyclohexyl)amino]sulfonyl}-2-methylphenyl)imidazo[1,2-a]pyridin-8-yl]acetamide] | –
11 | < 100 nM | 100 to 500 nM | > 1000 nM | Cc1ccc(S(=O)(=O)N[C@H]2CC[C@H](O)CC2)cc1-c1cnc2c(N)cc(-c3cnn(C)c3)cn12 [Example 8, 3-[8-Amino-6-(1-methyl-1H-pyrazol-4-yl)imidazo[1,2-a]pyridin-3-yl]-N-(trans-4-hydroxycyclohexyl)-4-methylbenzenesulfonamide bis(trifluoroacetate)] | –
12 | < 100 nM | 500 to 2000 nM | > 1000 nM | Cc1ccc(S(=O)(=O)N[C@H]2CC[C@H](O)CC2)cc1-c1cnc2c(N)cc(-c3cncnc3)cn12 [Example 9, 3-(8-Amino-6-pyrimidin-5-ylimidazo[1,2-a]pyridin-3-yl)-N-(trans-4-hydroxycyclohexyl)-4-methylbenzenesulfonamide] | –
13 | < 100 nM | > 2000 nM | – | Cc1ccc(S(=O)(=O)N2CCCC(CNC(=O)OC(C)(C)C)C2)cc1-c1cnc2c(N)nc(C(F)(F)F)cn12 (stereo not shown) [Example 512, tert-Butyl ((1-((3-(8-amino-6-(trifluoromethyl)imidazo[1,2-a]pyrazin-3-yl)-4-methylphenyl)sulfonyl)piperidin-3-yl)methyl)carbamate] | –
14 | 100 to 500 nM | 500 to 2000 nM | – | Cc1ccc(S(=O)(=O)N2CCCC(CNC(=O)CN(C)C)C2)cc1-c1cnc2c(N)nc(C(F)(F)F)cn12 (stereo not shown) [Example 514, N-((1-((3-(8-Amino-6-(trifluoromethyl)imidazo[1,2-a]pyrazin-3-yl)-4-methylphenyl)sulfonyl)piperidin-3-yl)methyl)-2-(dimethylamino)acetamide] | –
15 | 100 to 500 nM | > 2000 nM | – | Cc1ccc(S(=O)(=O)N2CCCC(NC(=O)OC(C)(C)C)C2)cc1-c1cnc2c(N)nc(C(F)(F)F)cn12 (stereo not shown) [Example 515, tert-Butyl (1-((3-(8-amino-6-(trifluoromethyl)imidazo[1,2-a]pyrazin-3-yl)-4-methylphenyl)sulfonyl)piperidin-3-yl)carbamate] | –
16 | < 100 nM | 500 to 2000 nM | – | Cc1ccc(S(=O)(=O)N2CCCC(NC(=O)C3CC3)C2)cc1-c1cnc2c(N)nc(C(F)(F)F)cn12 (stereo not shown) [Example 517, N-(1-((3-(8-Amino-6-(trifluoromethyl)imidazo[1,2-a]pyrazin-3-yl)-4-methylphenyl)sulfonyl)piperidin-3-yl)cyclopropanecarboxamide trifluoroacetate] | –

Row | Compound | IC50 [2] | IC50 [3] | IC50 ([1]; Homo sapiens) | IC50 [1]
17 | 3-(4-Amino-2-(trifluoromethyl)imidazo[2,1- f][1,2,4]triazin-7-yl)-N-(3- (hydroxymethyl)bicyclo[2.1.1]pentan-1-yl)-4-(methyl- d3)benzenesulfonamide trifluoroacetate salt [Example 420] | < 100 nM | 100 to 500 nM | – | 100 to 500 nM
18 | 3-[8-Amino-6-(2-fluoro-6-methoxyphenyl)imidazo[1,2-a]pyrazin-3-yl]-N-(trans-4-hydroxycyclohexyl)-4-methylbenzenesulfonamide [Example 34] | < 100 nM | 100 to 500 nM | – | 100 to 500 nM
19 | 3-{8-Amino-6-[3-(methylsulfonyl)phenyl]imidazo[1,2-a]pyrazin-3-yl}-N-(trans-4-hydroxycyclohexyl)-4-methylbenzenesulfonamide [Example 33] | < 100 nM | 100 to 500 nM | – | 500 to 1000 nM
20 | 5-(4-Amino-2-(trifluoromethyl)imidazo[1,2- f][1,2,4]triazin-7-yl)-2-chloro-N-(4- (hydroxymethyl)bicyclo[1.1.1]hexan-1- yl)benzenesulfonamide [Example 419] | < 100 nM | – | – | > 1000 nM
21 | Cc1nc(N)c2ncc(-c3cc(S(=O)(=O)NCC(O)C(F)(F)F)ccc3C)n2n1 (single isomer, unassigned) [Example 266, 3-(4-Amino-2-methylimidazo[1,2-f][1,2,4]triazin-7-yl)-4-methyl-N-(3,3,3-trifluoro-2-hydroxypropyl)benzenesulfonamide (single enantiomer isolated)] | < 100 nM | 100 to 500 nM | – | 100 to 500 nM
22 | Cc1nc(N)c2ncc(-c3cc(S(=O)(=O)NCC(O)C(F)(F)F)ccc3C)n2n1 (single isomer, unassigned) [Example 267, 3-(4-Amino-2-methylimidazo[1,2-f][1,2,4]triazin-7-yl)-4-methyl-N-(3,3,3-trifluoro-2-hydroxypropyl)benzenesulfonamide (single enantiomer isolated)] | < 100 nM | 100 to 500 nM | – | 100 to 500 nM
